#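 Cells were grown in 96-well plates and exposed to each compound for 48 hours at five concentrations; endpoints were interpolated linearly between bracketing concentrations, or set to the highest concentration if not reached. The concentration for 50% growth inhibition is given as GI50.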 Activity calls are given as the source filed them. No stated cut-off is given here; in the data, active = GI50 up to about 1.1 µM and inactive = higher.
# How the values were obtained:
# Assay in all cases: DTP human tumour cell line panel, 48 h
# [1] = tested on: ACHN
# [2] = tested on: CAKI-1
# [3] = tested on: CCRF-CEM
# [4] = tested on: HCT-116
# [5] = tested on: HL-60
# [6] = tested on: KM-20L2
# [7] = tested on: M19-MEL
# [8] = tested on: NCI-H460
# [9] = tested on: OVCAR-3
# [10] = tested on: OVCAR-8
# [11] = tested on: RXF 393
# [12] = tested on: SN12C
# [13] = tested on: SNB-19
# [14] = tested on: SNB-75
# [15] = tested on: SW-620
# [16] = tested on: UO-31
# [17] = tested on: Hs-578T
# [18] = tested on: MDA-N
# [19] = tested on: PC-3
# [20] = tested on: T47D
Structure (SMILES),GI50 [1],GI50 [2],GI50 [3],GI50 [4],GI50 [5],GI50 [6],GI50 [7],GI50 [8],GI50 [9],GI50 [10],GI50 [11],GI50 [12],GI50 [13],GI50 [14],GI50 [15],GI50 [16],GI50 [17],GI50 [18],GI50 [19],GI50 [20]
CC(=O)C1C(=O)C(=O)N(c2ccccc2N2C(=O)C(=O)C(C(C)=O)C2=O)C1=O (stereo unspecified),> 100 µM (inactive),> 100 µM (inactive),> 100 µM (inactive),> 100 µM (inactive),> 100 µM (inactive),> 100 µM (inactive),> 100 µM (inactive),> 100 µM (inactive),> 100 µM (inactive),> 100 µM (inactive),> 100 µM (inactive),> 100 µM (inactive),> 100 µM (inactive),> 100 µM (inactive),> 100 µM (inactive),> 100 µM (inactive),–,–,–,–
C=CCC12CC(=O)CCC1c1ccc(OC)cc1C2=O (stereo unspecified),> 100 µM (inactive),> 100 µM (inactive),> 100 µM (inactive),> 100 µM (inactive),> 100 µM (inactive),> 100 µM (inactive),> 100 µM (inactive),> 100 µM (inactive),> 100 µM (inactive),> 100 µM (inactive),> 100 µM (inactive),> 100 µM (inactive),> 100 µM (inactive),> 100 µM (inactive),> 100 µM (inactive),> 100 µM (inactive),–,–,–,–
C[C@]12CCC[C@H](Cl)C1(O)C[C@H](C(=O)O)CC2 (stereo partly specified),> 100 µM (inactive),> 100 µM (inactive),> 100 µM (inactive),> 100 µM (inactive),> 100 µM (inactive),> 100 µM (inactive),> 100 µM (inactive),> 100 µM (inactive),> 100 µM (inactive),> 100 µM (inactive),> 100 µM (inactive),> 100 µM (inactive),> 100 µM (inactive),> 100 µM (inactive),> 100 µM (inactive),> 100 µM (inactive),–,–,–,–
Cc1cccc(C)c1NC(=O)C(=O)CC(=O)CO,> 100 µM (inactive),> 100 µM (inactive),> 100 µM (inactive),> 100 µM (inactive),> 100 µM (inactive),> 100 µM (inactive),> 100 µM (inactive),> 100 µM (inactive),> 100 µM (inactive),> 100 µM (inactive),> 100 µM (inactive),> 100 µM (inactive),> 100 µM (inactive),73.5 µM (inactive),> 100 µM (inactive),> 100 µM (inactive),–,–,–,–
CN(C)C(=S)/N=c1\ssc(=S)n1Cc1cccs1,9.35 µM (inactive),3.11 µM (inactive),6.46 µM (inactive),3.15 µM (inactive),2.44 µM (inactive),1.87 µM (inactive),3.16 µM (inactive),3.73 µM (inactive),1.76 µM (inactive),4.99 µM (inactive),2.19 µM (inactive),6.9 µM (inactive),6.05 µM (inactive),1.52 µM (inactive),2.07 µM (inactive),6.28 µM (inactive),1.51 µM (inactive),0.604 µM (active),2.4 µM (inactive),8.51 µM (inactive)
COCN(C)c1nc(N(C)C)nc(N(C)C)n1,> 100 µM (inactive),> 100 µM (inactive),> 100 µM (inactive),> 100 µM (inactive),> 100 µM (inactive),> 100 µM (inactive),> 100 µM (inactive),> 100 µM (inactive),> 100 µM (inactive),> 100 µM (inactive),40.3 µM (inactive),> 100 µM (inactive),> 100 µM (inactive),> 100 µM (inactive),> 100 µM (inactive),> 100 µM (inactive),–,–,–,–
CCOC(=O)C1(Br)C(c2ccccc2)NC(=O)N(C2OC(COC(=O)c3ccccc3)C(OC(=O)c3ccccc3)C2OC(=O)c2ccccc2)C1(C)Br (stereo unspecified),30.8 µM (inactive),35.6 µM (inactive),3.15 µM (inactive),18.2 µM (inactive),0.0565 µM (active),37.9 µM (inactive),28.4 µM (inactive),31 µM (inactive),29.6 µM (inactive),17.3 µM (inactive),14.5 µM (inactive),34 µM (inactive),39.9 µM (inactive),13.3 µM (inactive),14.4 µM (inactive),25.9 µM (inactive),–,–,–,–
O=C(O)CN(CC(=O)O)Cc1cc(C#Cc2ccc(C#Cc3ccccc3)cc2)cc(CN(CC(=O)O)CC(=O)O)n1,32 µM (inactive),10.6 µM (inactive),29.4 µM (inactive),8.87 µM (inactive),12.9 µM (inactive),17 µM (inactive),17.5 µM (inactive),17.7 µM (inactive),9.02 µM (inactive),11.5 µM (inactive),15.7 µM (inactive),19.7 µM (inactive),5.75 µM (inactive),31.6 µM (inactive),15.7 µM (inactive),5.68 µM (inactive),46.8 µM (inactive),35.6 µM (inactive),4.12 µM (inactive),–
COc1cc2c(cc1OC)C(CC1=C(c3ccccc3)CN3CCc4cc(OC)c(OC)cc4C3C1)NCC2 (stereo unspecified),24.3 µM (inactive),25.7 µM (inactive),14.6 µM (inactive),–,12.2 µM (inactive),13.4 µM (inactive),17 µM (inactive),18.8 µM (inactive),17.3 µM (inactive),19.3 µM (inactive),2.66 µM (inactive),17.9 µM (inactive),19.6 µM (inactive),12.5 µM (inactive),17.7 µM (inactive),11.1 µM (inactive),–,–,–,–
CCOC(=O)N[C@@H]1C2CC(=O)C(O2)[C@@H]1OC (stereo partly specified),> 100 µM (inactive),> 100 µM (inactive),> 100 µM (inactive),> 100 µM (inactive),> 100 µM (inactive),> 100 µM (inactive),> 100 µM (inactive),> 100 µM (inactive),> 100 µM (inactive),> 100 µM (inactive),> 100 µM (inactive),> 100 µM (inactive),> 100 µM (inactive),> 100 µM (inactive),> 100 µM (inactive),> 100 µM (inactive),–,–,–,–
COc1cc(C)c(C)c(OC(=O)c2c(C)c(C)c(OC)c(C)c2OC)c1C,13.4 µM (inactive),7.26 µM (inactive),13.2 µM (inactive),4.1 µM (inactive),10 µM (inactive),4.17 µM (inactive),7.6 µM (inactive),3.98 µM (inactive),2.02 µM (inactive),19.5 µM (inactive),13 µM (inactive),15.7 µM (inactive),15.4 µM (inactive),4.04 µM (inactive),3.86 µM (inactive),32.4 µM (inactive),–,–,–,–
Cc1c(Cl)ccc2c1NC(=O)C2(O)CC(=O)c1ccc(Cl)cc1 (stereo unspecified),> 100 µM (inactive),> 71.9 µM (inactive),14.5 µM (inactive),27.5 µM (inactive),28.6 µM (inactive),> 100 µM (inactive),6.62 µM (inactive),29.6 µM (inactive),57.3 µM (inactive),34.9 µM (inactive),31.2 µM (inactive),26.8 µM (inactive),97.3 µM (inactive),76.2 µM (inactive),29.9 µM (inactive),> 100 µM (inactive),–,–,–,–
CC(=O)Nc1ccc(/C=C/C(=O)c2sc(-n3nc(-c4ccccc4)cc3-c3ccccc3)nc2C)cc1,> 10 µM (inactive),> 10 µM (inactive),> 10 µM (inactive),> 10 µM (inactive),> 10 µM (inactive),> 10 µM (inactive),> 10 µM (inactive),> 10 µM (inactive),> 10 µM (inactive),> 10 µM (inactive),> 10 µM (inactive),> 10 µM (inactive),> 10 µM (inactive),> 10 µM (inactive),> 10 µM (inactive),> 10 µM (inactive),–,–,–,–
Nc1ccc(N)c2c1C(=O)c1c(N)ccc(N)c1C2=O,27.5 µM (inactive),49.9 µM (inactive),23.8 µM (inactive),> 73.3 µM (inactive),45.6 µM (inactive),> 100 µM (inactive),> 71.1 µM (inactive),> 73.5 µM (inactive),25.1 µM (inactive),58.9 µM (inactive),35 µM (inactive),> 63.5 µM (inactive),47.8 µM (inactive),28.4 µM (inactive),52.6 µM (inactive),41.8 µM (inactive),–,–,–,–
COC(=O)C(=O)C1CCCCC(C2=NC3NN=C(N)N3C2=O)C1=O (stereo unspecified),> 100 µM (inactive),> 100 µM (inactive),> 100 µM (inactive),> 100 µM (inactive),> 100 µM (inactive),> 100 µM (inactive),> 100 µM (inactive),> 100 µM (inactive),> 100 µM (inactive),> 100 µM (inactive),63 µM (inactive),> 100 µM (inactive),> 100 µM (inactive),> 100 µM (inactive),> 100 µM (inactive),> 100 µM (inactive),–,–,–,–
N#CC12CCC(O)C(CC1)C2=O (stereo unspecified),> 100 µM (inactive),> 100 µM (inactive),> 100 µM (inactive),73.1 µM (inactive),> 100 µM (inactive),> 100 µM (inactive),> 100 µM (inactive),70 µM (inactive),> 100 µM (inactive),> 100 µM (inactive),> 100 µM (inactive),> 100 µM (inactive),> 100 µM (inactive),> 100 µM (inactive),–,> 100 µM (inactive),–,–,–,–

# Source: ChEMBL document CHEMBL1201862, “PubChem BioAssay data set” (2004)
